Results reported in the supplement of paper PMC11997997.

Tests used:
[1] = system: murine bone marrow-derived macrophages; assay: area under cytotoxicity dose-response curve (AUC (% cytotoxicity x dose, relative)); higher = more cytotoxic; settings: duration: 6 days; dose range: 0.13-80 uM, 8 points
How it was run: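 Cytotoxicity is given as the area under the dose–response curve, computed in GraphPad Prism version 10. Primary murine bone marrow-derived macrophages in opaque 384-well plates received an 8-point, 2.5-fold dilution series (final 80–0.13 μM) for 6 days at 37 °C in 5% CO2. Viability was measured by Promega's CellTiter-Glo luminescence assay, with percent cytotoxicity normalised to vehicle and positive control wells.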

[2] = system: Mycobacterium tuberculosis CDC1551 (intracellular, in murine BMDM); assay: area under intracellular growth-inhibition dose-response curve (AUC (% inhibition x dose, relative)); higher = more potent; settings: duration: 6 days; dose range: 0.13-80 uM, 8 points
How it was run: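 Luciferase-expressing M. tuberculosis CDC1551 was used at multiplicity of infection 1 for 1 h to infect primary murine bone marrow-derived macrophages in 384-well opaque plates, 24 h after seeding. Treatment followed for 6 days with an 8-dose, 2.5-fold series at final concentrations of 80–0.13 μM. GraphPad Prism was used to calculate the area under the growth-inhibition dose–response curve from Bright-Glo luciferin readings normalised to a reference drug control and the lowest-concentration wells.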

Row | Structure (SMILES) | area under cytotoxicity dose-response curve [1] | area under intracellular growth-inhibition dose-response curve [2]
1 | CC1CCC(NC(=O)c2cc3c(s2)CCCC3)CC1 (centres undefined) | < 0 | 253
2 | CC(NC(=O)c1cccc(Cl)c1)C1CC2CCC1C2 (centres undefined) | 48.5 | 225
3 | COc1ccc(/C=N/NC(N)=S)cc1 | 4.45 | 258
4 | O=C(NC12CC3CC(CC(C3)C1)C2)c1ccc(Br)o1 | < 0 | 171
5 | C/C(=N/NC(=O)c1ccncc1)c1ccc(NC(=O)c2ccccc2)cc1 | 28.2 | 240
6 | NC(=S)N/N=C/c1ccc(C(F)(F)F)cc1 | 19.4 | 260
7 | O=C(Cn1c(=O)cnc2ccccc21)Nc1cccc(S(=O)(=O)N2CCOCC2)c1 | 30.4 | 23.9
8 | O=C(NCCc1c[nH]c2ccccc12)c1cc([N+](=O)[O-])cc([N+](=O)[O-])c1 | < 0 | 257
9 | COc1cc(/C=C/C(=O)c2ccc([N+](=O)[O-])o2)ccc1O | 107 | 76
10 | C/C(=N/NC(=O)c1ccncc1)c1ccccc1 | < 0 | 243
11 | CC(C)(C)C(=O)/C=C/Nc1ccccc1O | 5.21 | 88
12 | CC1CCN(C(=O)COc2ccccc2F)CC1 | 50.5 | 214
13 | [O-][n+]1onc2c3cc(-c4ccccc4)[nH]c3ccc21 | 40.6 | 74.3
14 | N#C/C(=N/Nc1ccc(OC(F)(F)F)cc1)C(N)=S | 90 | 62.6
15 | CCOc1ccccc1NC(=O)c1ccc2[nH]c(C)c(C)c2c1 | 6.53 | 192
16 | O=Cc1ccc2oc3nc4n(c(=O)c3c(=O)c2c1)CCCS4 | 95.3 | 111
17 | Cc1c2c(nc3ccccc13)CCC(C)C2.Cl (centres undefined) | < 0 | 199
18 | C[C@@H](CN1CCC[C@H]1CN1C(N)=NC[C@@H]1Cc1ccccc1)N1C[C@@H](Cc2ccccc2)N(CCCC2CCCC2)C1=N | 22.1 | 98
19 | COc1ccc(Cc2nnc(-c3ccccc3)o2)cc1 | 28.8 | 243
20 | O=C(NC(CO)C(O)c1ccc([N+](=O)[O-])cc1)C(Cl)Cl (centres undefined) | 21.4 | 113
21 | COc1cccc(OCC(=O)NC2CCCCC2)c1 | 94 | 226

Row | Structure (SMILES) | area under cytotoxicity dose-response curve [1] | area under intracellular growth-inhibition dose-response curve [2]
22 | C=CCN1/C(=C/c2ccc3cc(C)ccc3[n+]2CC)C=Cc2ccccc21.[Br-] | 86.8 | 102
23 | CCOC1OC(O)=C(Cl)/C1=N\c1ccccc1C (centres undefined) | < 0 | 231
24 | CCOC(=O)[N-]c1c[n+](N2CCOCC2)no1 | 41.1 | 28
25 | O=C(N/N=C/c1cn[nH]c1-c1ccc(F)cc1)c1ccncc1 | 215 | 226
26 | CCOC(=O)c1cc(-c2ccc(N3CCOCC3)cc2)nn1-c1ccc(F)cc1F | 22.7 | 15.8
27 | CC(=O)N1CCN(S(=O)(=O)c2cccc(C(=O)Nc3ccccc3N3CCCCC3)c2)CC1 | 21.9 | < 0
28 | O=C(N/N=C/c1c(F)c(F)c(F)c(F)c1F)c1ccc(Cn2cc(Br)cn2)o1 | < 0 | 154
29 | O=C(CCC1CCCC1)NCc1ccccn1 | < 0 | 240
30 | Cc1cccc(Cn2ccc(NC(=O)c3ccc4c(c3)OCO4)n2)c1 | 85.5 | 133
31 | O=C(O)/C=C\C(=O)O.OC(CCCN1CCCCC1)(c1ccccc1)c1ccc(C(F)(F)F)cc1 (centres undefined) | 32.3 | 214
32 | CC(C)c1ccc(NC(=S)Nc2ccc3c[nH]nc3c2)cc1 | < 0 | 271
33 | NC(=S)N/N=C/C=C/c1ccccc1 | 82.2 | 243
34 | COc1cccc2c1C(=O)c1c(O)c3c(c(O)c1C2=O)C[C@](O)(C(C)=O)C[C@H]3O[C@@H]1C[C@@H](N)[C@@H](O)[C@@H](C)O1.Cl | 172 | 44.8
35 | O=C(Nc1ccn(Cc2ccccc2)n1)c1ccc2c(c1)OCO2 | 62.2 | 121
36 | CC1CCC/C(=N\NC(=O)c2ccncc2)C1 (centres undefined) | 70.8 | 186
37 | C/C(=N/NC(N)=S)c1ccc(Br)s1 | < 0 | 268
38 | O=C(C1COc2ccccc2O1)N1CCCCC1 (centres undefined) | 76 | 236
39 | NC(=S)N/N=C/c1ccc(-c2cc(Cl)ccc2Cl)o1 | 33.2 | 247
40 | CC1CCC(C(C)C)C(OC(=O)Cn2c(COc3ccccc3)[n+](C)c3ccccc32)C1.[Cl-] (centres undefined) | 39.3 | 201
41 | NS(=O)(=O)c1ccc(NC(=O)c2ccc(Cl)c(S(=O)(=O)NCc3ccco3)c2)cc1 | < 0 | 25.5
42 | CNC[C@@H](Cc1ccccc1)NC[C@@H](CC1CCCCC1)NCCCc1ccccc1 | 61.5 | 104

Row | Structure (SMILES) | area under cytotoxicity dose-response curve [1] | area under intracellular growth-inhibition dose-response curve [2]
43 | Cc1ccc(-c2cc(-c3ccccc3)cc(-c3ccccc3)[n+]2-c2ccccc2)cc1.[O-][Cl+3]([O-])([O-])[O-] | 23.7 | 91.8
44 | O=C(NC1CCCCCCC1)c1ccco1 | 3.98 | 234
45 | Cc1ccc(C(C)C)c(OCc2n[n+](CC(=O)c3ccc(Cl)cc3)c3n2CCCCC3)c1.[Br-] | < 0 | 169
46 | Br.CCCc1cc(-c2nc(-c3ccc(Cl)cc3)cs2)ccn1 | 78.3 | 163
47 | O=C(COc1ccccc1)NC1CCCCC1 | 80.6 | 260
48 | CCCCNC(=O)Cc1ccc(C)cc1 | 80.9 | 115
49 | Nc1c2c(nc3sc4c(c13)CCCC4)CCCC2 | 77.7 | 125
50 | COc1ccc(CCNC(=O)c2cc(-c3ccccn3)nc3ccccc23)cc1 | 17.5 | 40.6
51 | O.Sc1[nH]cnc2ncnc1-2 | < 0 | 140
52 | Cc1c(Cl)c(C(F)F)nn1CC(=O)NC1C(=O)N2C(C(=O)O)=C(CSc3nnnn3C)CSC12 (centres undefined) | 121 | 151
53 | O=C(NC1CCCCC1)c1ccc2c(c1)OCO2 | 88.5 | 125
54 | O=C(NCCN1CCOCC1)c1cc([N+](=O)[O-])cc([N+](=O)[O-])c1 | 8.42 | 168
55 | CC(=O)Nc1ccc(/C(C)=N/NC(=O)c2ccncc2)cc1 | 0.755 | 250
56 | O=C(COC(=O)C1COc2ccccc2O1)Nc1cccc(F)c1 (centres undefined) | < 0 | 46.1
57 | CCNC(=S)N/N=C(\C)c1ccc(N2CCOCC2)cc1 | 43.5 | 164
58 | O=C(Nc1ccc(OC(F)(F)F)cc1)c1ccc2c(c1)no[n+]2[O-] | < 0 | 230
59 | CCN1C(=O)/C(=C\NC2CCCC(C)C2C)SC1=S (centres undefined) | 97.6 | 226
60 | C=C[C@]1(C)C[C@@H](OC(=O)CSCCN(CC)CC)[C@]2(C)C(C)CC[C@]3(CCC(=O)[C@H]32)[C@@H](C)[C@@H]1O.O=C(O)/C=C/C(=O)O (some centres undefined) | 89.1 | 199
61 | COCCCNCC(=O)Nc1sc(C)c(C)c1C(=O)OC.O=C(O)C(=O)O | 48.9 | 76.8
62 | C#CCSc1nnc(-c2ccc([N+](=O)[O-])cc2)o1 | < 0 | 246
